C=CC(=O)N1CCC([C@@H]2CCNc3c(C(N)=O)c(-c4ccc(Oc5ccccc5)cc4)nn32)CC1 [zanubrutinib, (S)-7-(1-acryloylpiperidin-4-yl)-2-(4-phenoxyphenyl)-4,5,6,7-tetrahydropyrazolo[1,5-a]pyrimidine-3-carboxamide]
Serious infection AESI, EAIR (After Coadministration): 1.15 per 100 person-months | Serious major hemorrhage AESI, EAIR (After Coadministration): 0.09 per 100 person-months | Serious major hemorrhage AESI, patients (After Coadministration): 1.9% | Serious neutropenia AESI, EAIR (After Coadministration): 0.18 per 100 person-months | Serious neutropenia AESI, patients (After Coadministration): 3.7% | Serious neutropenic sepsis (After Coadministration): 0% | Serious neutrophil count decreased (After Coadministration): 0.0% | Serious second primary malignancies AESI, EAIR (After Coadministration): 0.13 per 100 person-months | Serious second primary malignancies AESI, patients (After Coadministration): 2.8% | Serious squamous cell carcinoma of skin (After Coadministration): 0 (0.0%) n (%) | Skin cancer AESI ≥Grade 3, EAIR (After Coadministration): 0.13 per 100 person-months | Skin cancer AESI, EAIR (After Coadministration): 0.41 per 100 person-months | Skin cancer AESI, patients (After Coadministration): 8.4% | Skin cancer SAE, EAIR (After Coadministration): 0.04 per 100 person-months | Squamous cell carcinoma of skin (After Coadministration): 0.9% | Squamous cell carcinoma of skin ≥Grade 3 (After Coadministration): 1 (0.9%) n (%) | Thrombocytopenia AESI leading to dose interruption (After Coadministration): 0.0% | Thrombocytopenia AESI ≥Grade 3, EAIR (After Coadministration): 0.13 per 100 person-months | Thrombocytopenia AESI ≥Grade 3, patients (After Coadministration): 2.8% | Thrombocytopenia AESI, EAIR (After Coadministration): 0.41 per 100 person-months | Thrombocytopenia AESI, patients (After Coadministration): 8.4% | Thrombocytopenia PT (After Coadministration): 3.7% | Anemia AESI ≥Grade 3, EAIR (During Coadministration): 1.70 per 100 person-months | Anemia AESI, EAIR (During Coadministration): 1.91 per 100 person-months | Atrial fibrillation PT (During Coadministration): 1.4% | Atrial fibrillation and flutter AESI Grade ≥3, EAIR (During Coadministration): 0.33 per 100 person-months | Atrial fibrillation and flutter AESI Grade ≥3, patients (During Coadministration): 1.4% | Atrial fibrillation and flutter AESI, EAIR (During Coadministration): 0.33 per 100 person-months | Atrial fibrillation and flutter AESI, patients (During Coadministration): 1.4% | Atrial flutter PT (During Coadministration): 0.0% | Basal cell carcinoma (During Coadministration): 0.0% | Basal cell carcinoma leading to dose interruption (During Coadministration): 0 (0.0%) n (%) | Basal cell carcinoma ≥Grade 3 (During Coadministration): 0 (0.0%) n (%) | Epistaxis (hemorrhage AESI) (During Coadministration): 1.4% | External ear neoplasm malignant leading to dose interruption (During Coadministration): 1 (0.7%) n (%) | Febrile neutropenia PT (During Coadministration): 2.9% | Grade 3 or higher AESI (During Coadministration): 36 (26.1) n (%) | Haematuria (hemorrhage AESI) (During Coadministration): 1.4% | Haematuria (major hemorrhage) (During Coadministration): 0 (0.0%) n (%) | Haematuria (major hemorrhage) ≥Grade 3 (During Coadministration): 0 (0.0%) n (%) | Haematuria leading to dose interruption (During Coadministration): 0 (0.0%) n (%) | Haematuria ≥Grade 3 (During Coadministration): 0 (0.0%) n (%) | Hemorrhage AESI leading to dose interruption (During Coadministration): 0.7% | Hemorrhage AESI ≥Grade 3, EAIR (During Coadministration): 0.16 per 100 person-months | Hemorrhage AESI ≥Grade 3, patients (During Coadministration): 0.7% | Hemorrhage AESI, EAIR (During Coadministration): 4.04 per 100 person-months | Hemorrhage AESI, patients (During Coadministration): 14.5% | Herpes zoster (During Coadministration): 2.2% | Hypertension AESI ≥Grade 3, EAIR (During Coadministration): 0.17 per 100 person-months | Hypertension AESI ≥Grade 3, patients (During Coadministration): 0.7% | Hypertension AESI, EAIR (During Coadministration): 0.70 per 100 person-months | Hypertension AESI, patients (During Coadministration): 2.9% | Infection AESI leading to dose reduction (During Coadministration): 1.4% | Infection AESI leading to treatment discontinuation (During Coadministration): 4.3% | Infection AESI ≥Grade 3, EAIR (During Coadministration): 5.83 per 100 person-months | Infection AESI, EAIR (During Coadministration): 16.79 per 100 person-months | Major hemorrhage AESI leading to dose interruption (During Coadministration): 0.7% | Major hemorrhage AESI ≥Grade 3, EAIR (During Coadministration): 0.16 per 100 person-months | Major hemorrhage AESI ≥Grade 3, patients (During Coadministration): 0.7% | Major hemorrhage AESI, EAIR (During Coadministration): 0.16 per 100 person-months | Major hemorrhage AESI, patients (During Coadministration): 0.7% | Malignant melanoma (During Coadministration): 0 (0.0%) n (%) | Neutropenia AESI leading to dose reduction (During Coadministration): 0.0% | Neutropenia AESI leading to treatment interruption (During Coadministration): 7.2% | Neutropenia AESI ≥Grade 3, EAIR (During Coadministration): 3.72 per 100 person-months | Neutropenia AESI ≥Grade 3, patients (During Coadministration): 12.3% | Neutropenia AESI, EAIR (During Coadministration): 5.43 per 100 person-months | Neutropenia AESI, patients (During Coadministration): 17.4% | Neutropenic sepsis PT (During Coadministration): 0.0% | Neutropenic sepsis ≥Grade 3 (During Coadministration): 0.0% | Neutrophil count decreased leading to dose reduction (During Coadministration): 0.0% | Opportunistic infection AESI leading to dose reduction (During Coadministration): 0.7% | Opportunistic infection AESI leading to treatment discontinuation (During Coadministration): 0.7% | Opportunistic infection AESI ≥Grade 3, EAIR (During Coadministration): 0.50 per 100 person-months | Opportunistic infection AESI ≥Grade 3, patients (During Coadministration): 3 (2.2%) n (%)

Reference: patent publication US11911386B2, “Methods of treating B-cell proliferative disorder” (BeiGene Switzerland GmbH, priority 2022, dated 2024)
